“Also recorded” adds a separate entry of the source.
Experiments:
Cytotoxicity assay = format: cell-based, hamster; conditions: hamster, BHK-21 cells, CC50, BHK-21 cells, 24 h, MTT
BHK-21 cells = test: Cytotoxicity assay; format: cell-based, hamster; conditions: for cytotoxic effect over the tested concentrations: concentrations of 1 up to 100 μM, mixtures of four stereoisomers
CHIKV-NanoLuc = test: Antiviral activity assay, CHIKV-NanoLuc at low MOI in BHK-21 cells; format: cell-based, Chikungunya virus; conditions: for viral infection at 100 μM / concentration at which the inhibitory effect appeared: mixtures of four stereoisomers; for concentration at which the inhibitory effect appeared: tested at 1 up to 100 μM; for EC50: Chikungunya virus, BHK-21, 16 h

| Structure (SMILES) | CC50 at 24 h (Cytotoxicity assay) [µM] | concentration at which cytotoxicity appeared (BHK-21 cells) | EC50 (CHIKV-NanoLuc) [µM] | other results |
| --- | --- | --- | --- | --- |
| Cc1cc(C)cc([C@@H]2C[C@H]2C(=O)NC(C(N)=O)c2ccc(C)c(C)c2)c1 (stereo partly drawn) [D27] | < 0.1 | 100 nM | – | cytotoxic effect over the tested concentrations (BHK-21 cells): toxic at all concentrations |
| Cc1cc(C)cc([C@@H]2C[C@H]2C(=O)NC(C(=O)NC(C)(C)C)c2ccc(C)c(C)c2)c1 (stereo partly drawn) [D161] | > 100 | – | 13.9 | viral infection at 100 μM (CHIKV-NanoLuc; BHK-21 cells): almost completely inhibited; concentration at which the inhibitory effect appeared (CHIKV-NanoLuc; BHK-21 cells): 10 µM; cytotoxicity effect at 100 μM (BHK-21 cells; 100 μM, mixture of four stereoisomers): moderate cytotoxicity effect; also recorded: moderate cytotoxic effect |
| Cc1cc(F)cc([C@@H]2C[C@H]2C(=O)NC(C(N)=O)c2ccc(C)c(C(F)(F)F)c2)c1 (stereo partly drawn) [D127] | > 100 | more than 100 μM | 29.6 | – |
| Cc1cc(C)cc([C@@H]2C[C@H]2C(=O)NC(C(=O)NCc2ccccc2)c2ccc(C)c(C)c2)c1 (stereo partly drawn) [D160] | > 100 | – | 10.5 | viral infection at 100 μM (CHIKV-NanoLuc; BHK-21 cells): almost completely inhibited; concentration at which the inhibitory effect appeared (CHIKV-NanoLuc; BHK-21 cells): 10 µM; cytotoxic effect over the tested concentrations (BHK-21 cells): no cytotoxic effect |
| Cc1cc(C)cc([C@@H]2C[C@H]2C(=O)NC(C(=O)NC2CC2)c2ccc(C)c(C)c2)c1 (stereo partly drawn) [D163] | – | more than 10 μM | – | antiviral activity at the maximum nontoxic concentration (CHIKV-NanoLuc; BHK-21 cells, CHIKV-NanoLuc): no antiviral activity |
| COc1ccc(CNC(=O)C(NC(=O)[C@@H]2C[C@H]2c2cc(C)cc(F)c2)c2ccc(C)c(C(F)(F)F)c2)c(OC)c1 (stereo partly drawn) [D166] | > 100 | – | – | antiviral (anti-CHIKV) activity, in words (CHIKV-NanoLuc; BHK-21 cells, CHIKV-NanoLuc, low MOI): complete loss of the activity |
| Cc1cc(C)cc([C@@H]2C[C@H]2C(=O)NC(C(=O)NC2CCCC2)c2ccc(C)c(C)c2)c1 (stereo partly drawn) [D164] | > 100 | – | 50.5 | – |
| Cc1cc(C)cc([C@@H]2C[C@H]2C(=O)NC(C(N)=O)c2ccc(C)c(C(F)(F)F)c2)c1 (stereo partly drawn) [D119] | > 100 | – | 32 | – |
